# From US20050164370A1 (priority 2003, published 2005)
# Experiments:
# [1] = system: transformed cells TM182-CRE1-CYC1IPT4; settings: TM182-CRE1-CYC1IPT4, DOHLU+Glu agar containing 10 μM trans-zeatin, 30° C. for 30 hours
# Procedure: (§1) After incubation, the growth state of the transformed cells was observed and photographed by a digital camera.
# [2] = system: transformed cells TM182-AHK2-ADHIPT4; settings: TM182-AHK2-ADHIPT4, DOHLU+Glu agar containing 10 μM trans-zeatin, 30° C. for 30 hours
# Procedure: as §1
# [3] = system: transformed cells TM182-AHK2-ADHIPT5; settings: TM182-AHK2-ADHIPT5, DOHLU+Glu agar containing 10 μM trans-zeatin, 30° C. for 30 hours
# Procedure: as §1
# [4] = system: transformed cells TM182-AHK2-CYC1IPT4; settings: TM182-AHK2-CYC1IPT4, DOHLU+Glu agar containing 10 μM trans-zeatin, 30° C. for 30 hours
# Procedure: as §1
# [5] = system: transformed cells TM182-CRE1-ADHIPT4; settings: TM182-CRE1-ADHIPT4, DOHLU+Glu agar containing 10 μM trans-zeatin, 30° C. for 30 hours
# Procedure: as §1
# [6] = system: transformed cells TM182-CYC1-ADHIPT4; settings: TM182-CYC1-ADHIPT4, DOHLU+Glu agar containing 10 μM trans-zeatin, 30° C. for 30 hours
# Procedure: as §1
# [7] = system: transformed cells TM182-CYC1-CYC1IPT5; settings: TM182-CYC1-CYC1IPT5, DOHLU+Glu agar containing 10 μM trans-zeatin, 30° C. for 30 hours
# Procedure: as §1
# [8] = system: transformed cells TM182-AHK2-CYC1IPT5; settings: TM182-AHK2-CYC1IPT5, DOHLU+Glu agar containing 10 μM trans-zeatin, 30° C. for 30 hours
# Procedure: as §1
# [9] = system: transformed cells TM182-CYC1-ADHIPT5; settings: TM182-CYC1-ADHIPT5, DOHLU+Glu agar containing 10 μM trans-zeatin, 30° C. for 30 hours
# Procedure: as §1
# [10] = system: transformed cells TM182-CYC1-CYC1IPT4; settings: TM182-CYC1-CYC1IPT4, DOHLU+Glu agar containing 10 μM trans-zeatin, 30° C. for 30 hours
# Procedure: as §1
# cytokinin receptor AHK2Δ = molecular target: T1, cytokinin receptor AHK2Δ (Arabidopsis thaliana, UniProt Q9C5U2); settings: TM182-AHK2Δ, DOLU+Glu agar, 30° C. for 30 hours
# T1 sequence (Q9C5U2 196-1176): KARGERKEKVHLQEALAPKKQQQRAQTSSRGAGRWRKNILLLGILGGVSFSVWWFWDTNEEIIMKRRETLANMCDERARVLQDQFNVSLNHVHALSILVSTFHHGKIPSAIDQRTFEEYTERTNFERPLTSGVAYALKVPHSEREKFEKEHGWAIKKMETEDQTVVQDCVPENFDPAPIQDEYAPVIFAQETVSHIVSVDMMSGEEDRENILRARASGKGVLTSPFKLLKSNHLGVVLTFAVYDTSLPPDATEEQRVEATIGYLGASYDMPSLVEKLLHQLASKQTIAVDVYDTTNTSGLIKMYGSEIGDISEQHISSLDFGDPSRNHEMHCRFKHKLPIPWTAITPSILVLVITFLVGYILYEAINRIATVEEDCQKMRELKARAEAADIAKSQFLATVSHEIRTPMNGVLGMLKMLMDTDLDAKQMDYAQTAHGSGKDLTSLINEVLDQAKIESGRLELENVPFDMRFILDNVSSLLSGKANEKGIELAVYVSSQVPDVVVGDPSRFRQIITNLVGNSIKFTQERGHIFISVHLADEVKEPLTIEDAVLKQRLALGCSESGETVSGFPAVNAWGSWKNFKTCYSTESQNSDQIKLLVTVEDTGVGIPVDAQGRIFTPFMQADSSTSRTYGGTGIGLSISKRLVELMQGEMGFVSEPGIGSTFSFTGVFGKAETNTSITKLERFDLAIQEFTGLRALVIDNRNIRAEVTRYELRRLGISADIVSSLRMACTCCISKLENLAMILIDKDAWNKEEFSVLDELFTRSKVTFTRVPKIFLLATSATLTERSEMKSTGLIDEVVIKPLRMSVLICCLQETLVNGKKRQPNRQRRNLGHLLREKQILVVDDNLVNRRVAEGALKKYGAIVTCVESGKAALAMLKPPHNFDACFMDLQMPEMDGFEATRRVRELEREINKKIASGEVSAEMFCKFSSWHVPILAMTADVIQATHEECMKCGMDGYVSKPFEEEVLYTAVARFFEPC
# Procedure: A culture solution 10 μl (about 800 clones of yeast) of the transformed cells TM182-CRE1, TM182-AHK2, TM182-AHK2Δ and TM182-AHK3 produced by the example 12 was spotted on DOLU+Glu agar media containing 10 μM of trans-zeatin and cultured at 30° C. for 30 hours. After incubation, the growth state of the transformed cells was observed and photographed by a digital camera.
# Culture solutions of the transformed cells TM182-CRE1, TM182-AHK2Δ and TM182-AHK2 produced by the reference example 1 were spotted on DOLU+Glu agar media containing cytokinin in a variety of concentrations (1 nM, 10 nM, 100 nM, 1 μM, 10 μM, 100 μM) and cultured at 30° C. for 30 hours. After incubation, the growth state of the transformed cells was observed and photographed by a digital camera.
compound,measurement,setting,value
C/C(=C\CNc1ncnc2nc[nH]c12)CO [trans-zeatin],growth state of the transformed cells,[1],observed to grow
same,growth state of the transformed cells,[2],observed to grow
same,growth state of the transformed cells,[3],observed to grow
same,growth state of the transformed cells,[4],observed to grow
same,growth state of the transformed cells,[5],observed to grow
same,growth state of the transformed cells,[6],not observed to grow
same,growth state of the transformed cells,[7],not observed to grow
same,growth state of the transformed cells,[8],observed to grow
same,growth state of the transformed cells,[9],not observed to grow
same,growth state of the transformed cells,[10],not observed to grow
same,lowest observed supply concentration in which the transformed cells could be grown,cytokinin receptor AHK2Δ; 1 nM to 100 μM tested,100 nM
same,growth state of the transformed cells as compared with media containing no trans-zeatin,cytokinin receptor AHK2Δ; 10 μM,high growth
